Here are results for 1 compound from patent US11472771B2, “Process for making amino diaryl ethers and amino diaryl ethers hydrochloride salts” (CELLESTIA BIOTECH AG, priority 2018, dated 2022).

Series [1] can be described thus: Forced degradation: solid state stressed by UV/VIS radiation. It counts as physicochemical. How it is done:
Instrumentation: • Light stability chamber: Solarbox 1500e • Oven: Salvis Vacuum drying oven VC-20 • Heating unit: Ikamag RET-GS with IKA ETS SD and stainless steel heating block • Vials: Supelco V-Vials and screw caps with PTFE septa • Gas tight vials: Agilent 10 mL HS-GC clear glass vials and crimp caps with Not applicable PTFE septa • Quartz glass cuvette: Hellma precision cuvette Suprasil, Type 117.100-QS, 10 mm path length, screw capped with silicone septa • HPLC: As described above
The HPLC test method described above was used to determine the assay and purity of 6-(4-(tert-butyl)phenoxy)pyridin-3-amine monohydrochloride before the forced degradation experiments and the area % content of individual impurities and degradation products in the 6-(4-(tert-butyl)phenoxy)pyridin-3-amine monohydrochloride samples obtained from the degradation experiments.
The assay and the purity of 6-(4-(tert-butyl)phenoxy)pyridin-3-amine monohydrochloride were determined using HPLC with UV detection at 220 nm utilizing the area normalization methodology for purity determination and external standard calibration for assay determination. During all experiments the UV spectra from 200 nm to 950 nm have been recorded and also the peak purity of 6-(4-(tert-butyl)phenoxy)pyridin-3-amine monohydrochloride was assessed.
Two samples of 20.23 mg and 20.17 mg of 6-(4-(tert-butyl)phenoxy)pyridin-3-amine monohydrochloride were weighed each into a quartz glass cuvette. Both cuvettes were closed with the screw cap. One of the cuvettes was protected by wrapping it in aluminium foil. This sample served as dark control. Both cuvettes were placed alongside each other in the light stability chamber and were then exposed in accordance to guideline to UV/VIS radiation applying energy of 500 W/m^2 until a total illumination of 1200 kLux·h was reached. After exposure to the UV/VIS radiation for an illumination of 1200 kLux·h the sample was brought to room temperature and the content of the cuvette was dissolved in about 2 mL of the sample solvent (acetonitrile/water 3:1 v/v). The obtained solution was quantitatively transferred into a 25 mL volumetric flask. Then the cuvette was rinsed five times with about 2 mL sample solvent, whereupon each time the content of the cuvette was also transferred into the 25 mL volumetric flask. After the flask was filled up to volume with the sample solvent and was shaken well, an aliquot of this solution was transferred into a HPLC vial for analysis. Result: In solid state 6-(4-(tert-butyl)phenoxy)pyridin-3-amine monohydrochloride is stable against UV/VIS radiation. After an illumination of 1200 kLux·h, applying an energy of 500 W/m^2, the purity decreased by 0.6 area % which was mainly related to the occurrence of two unknown impurities.

Series [2] in a line: Solubility in water at various pH-values. It counts as physicochemical. Particulars: for calculated concentration charged: soluble. How it is done: The solubilities in water of 6-(4-(tert-butyl)phenoxy)pyridin-3-amine (formula (Ia)) and the monohydrochloride salt thereof, i.e. 6-(4-(tert-butyl)phenoxy)pyridin-3-amine monohydrochloride, were assessed at various pH-values according to Tables 3 and 4. The solubility in water of 6-(4-(tert-butyl)phenoxy)pyridin-3-amine (formula (Ia)) according to Table 3 was assayed as follows: Free base 500 mg were charged into 14 mL of acidic media at pH=2, 4, at neutral pH=7 and basic pH=10 to afford suspensions within calculated concentration of appr. 35 mg/mL. The solubility in water of 6-(4-(tert-butyl)phenoxy)pyridin-3-amine monohydrochloride according to Table 4 was assayed as follows: HCl salt 100 mg each were charged into acidic media at pH=2 and 4 and neutral media pH=7 to furnish solutions. Most important observation was to that at a neutral solution at pH=7 drops down to pH=1 by charging HCl salt 100 mg.

[3] abbreviates: solid state, illumination of 1200 kLux·h, 500 W/m^2.
The mark [4] stands for this setting: 15% acetic acid soln., pH solvent 2, 100 mg in 0.6 ml.
The mark [5] stands for this setting: Fluka 33643 (pH = 4), 100 mg in 1.4 ml.
Where [6] appears, read: Fluka 33646 (pH = 7), 100 mg in 1.0 ml.

Structures are written as SMILES.

With `CC(C)(C)c1ccc(Oc2ccc(N)cn2)cc1.Cl` [6-(4-(tert-butyl)phenoxy)pyridin-3-amine monohydrochloride], the “decrease in the assay” value in series [1] (dark control (cuvette wrapped in aluminium foil) in the light stability chamber) is on record as 2.4 % w/w; in series [1] (setting [3]), 2.1 % w/w. The “stability against UV/VIS radiation” value in series [1] (solid state) is “stable”. The purity decrease in series [1] (setting [3]) came out at 0.6 area %. Also, the results for the pH solution in series [2] (setting [4]), in series [2] (setting [5]) and in series [2] (setting [6]) were 0, 1 and 1, respectively. Moreover, the soluble entry is “yes” in series [2] (15% acetic acid soln., pH solvent 2, 100 mg in 0.6 ml, conc. 166.66 mg/mL); “yes” in series [2] (Fluka 33643 (pH = 4), 100 mg in 1.4 ml, conc. 71.43 mg/mL); “yes” in series [2] (Fluka 33646 (pH = 7), 100 mg in 1.0 ml, conc. 100.00 mg/mL). For the same compound, the calculated concentration charged in series [2] (setting [4]) was 166.66 mg/mL; in series [2] (setting [5]) it was 71.43 mg/mL; in series [2] (setting [6]) it was 100.00 mg/mL. Also, in series [2] (water, in words), the solubility in water entry is “well-soluble”.
